# Data taken from BindingDB's records for doi:10.1021/jm100158v (University of California, 2010).
# Assay: Inhibition of Escherichia coli K12 ADCS by spectrophotometry
smiles,measurement,value
Cc1ccc(C(=O)N[C@@H](CCCCNC(=O)c2cccc(OCC(=O)O)c2)C(=O)N[C@@H](Cc2cccc(Cl)c2)C(N)=O)c([N+](=O)[O-])c1O [2-(3-((S)-6-((S)-1-amino-3-(3-chlorophenyl)-1-oxopropan-2-ylamino)-5-(3-hydroxy-4-methyl-2-nitrobenzamido)-6-oxohexylcarbamoyl)phenoxy)acetic acid],Ki,770 µM
